Measured values: patent publication US6589984B1, “Benzofurylpyrone derivatives” (Teijin Limited, priority 1998, dated 2003)

system: Human hepatic cancer cells HepG2; assay: TG production inhibiting activity (14C-acetic acid incorporation into TG) in HepG2 cells; format: cell-based; details: Homo sapiens, HepG2; group criterion, alternatives: IC50 at least 10 μM and less than 100 μM, or at least 5% and less than 30% inhibition at 1 μM, or at least 30% and less than 50% inhibition at 10 μM
Description: Human hepatic cancer cells HepG2 were inoculated into a 24-well plate (Costar No. 3524) at 4×10^4 cells/well, and 1 ml of medium (eRDF medium containing 10% bovine serum (Kyokuto Chemical Co.)) was used for 6 day culturing with 5% CO2 at 37° C. After drawing off the supernatant medium, the cells were freshly rinsed with 1 ml of PBS(−) buffer solution (Takara Shuzo) and drawn off. This procedure was repeated twice and then 1 ml of fresh medium (eRDF medium) was added.
6-(benzofuran-2-yl)-3,5-dimethyl-4-hydroxy-2H-pyran-2-one (Example 2) was dissolved in dimethylsulfoxide (DMSO) to prepare a 20 mM sample stock solution. A diluted solution was obtained by diluting the sample solution with DMSO.
To the cells prepared above there were added the sample stock solution or its diluted solution at 5 μl per well and 10 μl of ^14C-acetic acid solution (a solution of Amersham Code No. CFA13 diluted 4.4-fold with PBS(−) buffer), and culturing was carried out for one day with 5% CO2 at 37° C.
After the culturing was completed, the culture solution was removed, and 1 ml of extraction solution (a mixture of n-hexane and isopropyl alcohol at 2:1) was added for extraction treatment on the lipid components in the cells. After the treatment, the extract containing the obtained lipid components was air-dried, the residue was redissolved in 20 μl of a mixed solution of n-hexane and ethyl acetate at 9:1, and the solution was spotted on a thin-layer chromatography plate (S319, Tokyo Kasei) and developed by thin-layer chromatography with the mixed solution mentioned above. After air-drying, the lipid components were colored with iodine vapor, the portion corresponding to TG was cut out, and the amount of TG biosynthesized was measured with a liquid scintillation counter.

Compound | IC50 [µM]
Cc1c(-c2cc3cc(OCc4nccs4)ccc3o2)oc(=O)c(C)c1O [Example 60, 4-hydroxy-3,5-dimethyl-6-(5-(2-thiazolylmethoxy)benzofuran-2-yl)-2H-pyran-2-one] | 10 to 100
Cc1c(O)c(Oc2ccccc2)c(-c2cc3ccccc3o2)oc1=O [Example 67, 6-(benzofuran-2-yl)-4-hydroxy-3-methyl-5-phenoxy-2H-pyran-2-one] | 10 to 100
CC=CCc1c(-c2cc3ccccc3o2)oc(=O)c(C)c1O [Example 68, 6-(benzofuran-2-yl)-5-(2-butenyl)-4-hydroxy-3-methyl-2H-pyran-2-one] | 10 to 100
Cc1c(-c2cc3ccccc3o2)oc(=O)c(C)c1OC(=O)c1ccc(O)nc1 [Example 74, 6-(benzofuran-2-yl)-3,5-dimethyl-4-(6-hydroxynicotinoyloxy)-2H-pyran-2-one] | 10 to 100

Second part, the compound after the results:

IC50 [µM] | Compound
10 to 100 | Cc1c(-c2cc3cc(OCc4ccc(Cl)cc4)ccc3o2)oc(=O)c(C)c1O [Example 79, 6-(5-(4-chlorobenzyloxy)benzofuran-2-yl)-3,5-dimethyl-4-hydroxy-2H-pyran-2-one]
10 to 100 | Cc1c(-c2cc3cc(OCc4ccccc4Br)ccc3o2)oc(=O)c(C)c1O [Example 81, 6-(5-(2-bromobenzyloxy)benzofuran-2-yl)-3,5-dimethyl-4-hydroxy-2H-pyran-2-one]
10 to 100 | Cc1c(-c2cc3cc(OCc4cccc(Br)c4)ccc3o2)oc(=O)c(C)c1O [Example 83, 6-(5-(3-bromobenzyloxy)benzofuran-2-yl)-3,5-dimethyl-4-hydroxy-2H-pyran-2-one]
10 to 100 | Cc1c(-c2cc3cc(OCc4ccccn4)ccc3o2)oc(=O)c(C)c1O [Example 87, 3,5-dimethyl-4-hydroxy-6-(5-(2-pyridylmethoxy)benzofuran-2-yl)-2H-pyran-2-one]
10 to 100 | Cc1c(-c2cc3cc(OCC4CCCCN4C)ccc3o2)oc(=O)c(C)c1O (stereo not shown) [Example 95, 3,5-dimethyl-4-hydroxy-6-(5-(1-methylpiperidin-2-ylmethoxy)benzofuran-2-yl)-2H-pyran-2-one]
10 to 100 | Cc1c(-c2cc3cc(OC(CN(C)C)CN(C)C)ccc3o2)oc(=O)c(C)c1O [Example 107, 6-(5-(1,3-bis(dimethylamino)-2-propoxy)benzofuran-2-yl)-3,5-dimethyl-4-hydroxy-2H-pyran-2-one]
10 to 100 | Cc1c(-c2cc3cc(OCCN4CCOCC4)ccc3o2)oc(=O)c(C)c1O [Example 115, 3,5-dimethyl-4-hydroxy-6-(5-(2-(morpholin-4-yl)ethoxy)benzofuran-2-yl)-2H-pyran-2-one]
10 to 100 | Cc1c(-c2cc3cc(OCc4ccc(C(F)(F)F)cc4)ccc3o2)oc(=O)c(C)c1O [Example 124, 3,5-dimethyl-4-hydroxy-6-(5-(4-(trifluoromethyl)benzyloxy)benzofuran-2-yl)-2H-pyran-2-one]
10 to 100 | Cc1c(-c2cc3cc(OCC4CCCC4)ccc3o2)oc(=O)c(C)c1O [Example 126, 6-(5-(cyclopentylmethoxy)benzofuran-2-yl)-3,5-dimethyl-4-hydroxy-2H-pyran-2-one]

same assay, conditions: Homo sapiens, HepG2; group criterion, alternatives: IC50 less than 10 μM, or at least 30% inhibition at 1 μM, or at least 50% inhibition at 10 μM

Compound | IC50 [µM]
Cc1c(-c2cc3ccccc3o2)oc(=O)c(C)c1OC(=O)c1ccncc1 [Example 50, 6-(benzofuran-2-yl)-3,5-dimethyl-4-isonicotinoyloxy-2H-pyran-2-one] | < 10
Cc1c(-c2cc3cc(OCc4ccccc4)ccc3o2)oc(=O)c(C)c1OC(=O)CNC(=O)OC(C)(C)C [Example 52, 6-(5-benzyloxybenzofuran-2-yl)-4-(2-(t-butoxycarbonylamino)acetyloxy)-3,5-dimethyl-2H-pyran-2-one] | < 10
CC(=O)Nc1ccc(C(=O)Oc2c(C)c(-c3cc4cc(OCc5ccccc5)ccc4o3)oc(=O)c2C)cc1 [Example 54, 4-(4-(acetylamino)benzoyloxy)-6-(5-benzyloxybenzofuran-2-yl)-3,5-dimethyl-2H-pyran-2-one] | < 10
Cc1c(-c2cc3cc(OCc4ccccc4)ccc3o2)oc(=O)c(C)c1OC(=O)c1cccnc1 [Example 55, 6-(5-benzyloxybenzofuran-2-yl)-3,5-dimethyl-4-nicotinoyloxy-2H-pyran-2-one] | < 10
Cc1c(-c2cc3cc(OCc4ccccc4)ccc3o2)oc(=O)c(C)c1OC(=O)c1ccncc1 [Example 56, 6-(5-benzyloxybenzofuran-2-yl)-3,5-dimethyl-4-isonicotinoyloxy-2H-pyran-2-one] | < 10
CCc1c(-c2cc3cc(OCc4ccccc4)ccc3o2)oc(=O)c(C)c1O [Example 57, 6-(5-benzyloxybenzofuran-2-yl)-5-ethyl-4-hydroxy-3-methyl-2H-pyran-2-one] | < 10
CC(=O)Oc1c(C)c(-c2cc3cc(OCc4nccs4)ccc3o2)oc(=O)c1C [Example 59, 4-acetyloxy-3,5-dimethyl-6-(5-(2-thiazolylmethoxy)benzofuran-2-yl)-2H-pyran-2-one] | < 10
Cc1c(-c2cc3ccccc3o2)oc(=O)c(C)c1OC(=O)CCc1ccccc1 [Example 61, 6-(benzofuran-2-yl)-3,5-dimethyl-4-(3-phenylpropionyloxy)-2H-pyran-2-one] | < 10
Cc1c(-c2cc3ccccc3o2)oc(=O)c(C)c1OC(=O)c1ccco1 [Example 62, 6-(benzofuran-2-yl)-3,5-dimethyl-4-(2-furoyloxy)-2H-pyran-2-one] | < 10
Cc1c(-c2cc3ccccc3o2)oc(=O)c(C)c1OC(=O)c1cccnc1 [Example 63, 6-(benzofuran-2-yl)-3,5-dimethyl-4-nicotinoyloxy-2H-pyran-2-one] | < 10
CC(=O)NC(CC(=O)N1CCOCC1)C(=O)Oc1c(C)c(-c2cc3ccccc3o2)oc(=O)c1C (stereo not shown) [Example 64, 6-(benzofuran-2-yl)-3,5-dimethyl-4-(2-acetylamino-4-(morpholin-4-yl)-4-oxobutyryloxy)-2H-pyran-2-one] | < 10
CC(=O)Oc1c(C)c(-c2cc3cc(Br)ccc3o2)oc(=O)c1C [Example 65, 4-acetyloxy-6-(5-bromobenzofuran-2-yl)-3,5-dimethyl-2H-pyran-2-one] | < 10
Cc1c(O)c(CC2CCCC2)c(-c2cc3ccccc3o2)oc1=O [Example 66, 6-(benzofuran-2-yl)-5-cyclopentylmethyl-4-hydroxy-3-methyl-2H-pyran-2-one] | < 10
Cc1c(-c2cc3ccccc3o2)oc(=O)c(C)c1C(=O)OC1CCC(=O)N1 (stereo not shown) [Example 70, 6-(benzofuran-2-yl)-3,5-dimethyl-4-(2-pyrrolidon-5-ylcarboxy)-2H-pyran-2-one] | < 10
Cc1c(-c2cc3ccccc3o2)oc(=O)c(C)c1OC(=O)CNC(=O)OC(C)(C)C [Example 71, 6-(benzofuran-2-yl)-4-(2-(t-butoxycarbonylamino)acetyloxy)-3,5-dimethyl-2H-pyran-2-one] | < 10
COc1ccc(C(=O)Oc2c(C)c(-c3cc4ccccc4o3)oc(=O)c2C)c(OC)c1 [Example 72, 6-(benzofuran-2-yl)-4-(2,4-dimethoxybenzoyloxy)-3,5-dimethyl-2H-pyran-2-one] | < 10
Cc1c(-c2cc3ccccc3o2)oc(=O)c(C)c1OC(=O)c1cccc(N(C)C)c1 [Example 75, 6-(benzofuran-2-yl)-3,5-dimethyl-4-(3-dimethylaminobenzoyloxy)-2H-pyran-2-one] | < 10
CC(=O)Nc1ccc(C(=O)Oc2c(C)c(-c3cc4ccccc4o3)oc(=O)c2C)cc1 [Example 76, 4-(4-(acetylamino)benzoyloxy)-6-(benzofuran-2-yl)-3,5-dimethyl-2H-pyran-2-one] | < 10
Cc1c(-c2cc3cc(OCc4ccccc4F)ccc3o2)oc(=O)c(C)c1O [Example 78, 3,5-dimethyl-6-(5-(2-fluorobenzyloxy)benzofuran-2-yl)-4-hydroxy-2H-pyran-2-one] | < 10

Further lines, results first:

IC50 [µM] | Compound
< 10 | Cc1c(-c2cc3cc(OCc4cccnc4)ccc3o2)oc(=O)c(C)c1O [Example 89, 3,5-dimethyl-4-hydroxy-6-(5-(3-pyridylmethoxy)benzofuran-2-yl)-2H-pyran-2-one]
< 10 | Cc1c(-c2cc3cc(OCC4CCCN(C)C4)ccc3o2)oc(=O)c(C)c1O (stereo not shown) [Example 97, 3,5-dimethyl-4-hydroxy-6-(5-(1-methylpiperidin-3-ylmethoxy)benzofuran-2-yl)-2H-pyran-2-one]
< 10 | Cc1c(-c2cc3cc(OCc4ccc(C(=O)O)cc4)ccc3o2)oc(=O)c(C)c1O [Example 117, 6-(5-(4-carboxybenzyloxy)benzofuran-2-yl)-3,5-dimethyl-4-hydroxy-2H-pyran-2-one]
< 10 | Cc1c(-c2cc3cc(OCc4ccccc4C(F)(F)F)ccc3o2)oc(=O)c(C)c1O [Example 120, 3,5-dimethyl-4-hydroxy-6-(5-(2-(trifluoromethyl)benzyloxy)benzofuran-2-yl)-2H-pyran-2-one]
< 10 | Cc1c(-c2cc3cc(OCc4cccc(C(F)(F)F)c4)ccc3o2)oc(=O)c(C)c1O [Example 122, 3,5-dimethyl-4-hydroxy-6-(5-(3-(trifluoromethyl)benzyloxy)benzofuran-2-yl)-2H-pyran-2-one]
